Where “and” joins values, the source holds several entries; their conditions need not be identical. Identical values can stand only once. Toxic doses and inconclusive results are not listed. Rule as the data show it: active = T/C of 150% or more; inactive = T/C below 125%.
System: L1210 leukemia ip in BDF1 mice, survival T/C
Assay: NCI In Vivo Anticancer Drug Screen. Data for tumor model L1210 Leukemia (intraperitoneal) in B6D2F1 (BDF1) mice
Settings: endpoint: mean survival time, higher = longer survival
In short: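 Each compound was tested against a transplantable tumor grown in mice. The endpoint was survival, with treated animals benchmarked against vehicle controls as a simple ratio.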

[1] = dose: 50.0 mg/kg/injection, schedule: Q01DX009 (ip), vehicle: saline
[2] = dose: 100.0 mg/kg/injection, schedule: Q01DX009 (ip), vehicle: saline
[3] = dose: 100.0 mg/kg/injection, schedule: Q04DX003 (ip), vehicle: saline
[4] = dose: 100.0 mg/kg/injection, schedule: Q04DX002 (ip), vehicle: Klucel (hydroxypropylcellulose) (HPC)
[5] = dose: 200.0 mg/kg/injection, schedule: Q04DX002 (ip), vehicle: Klucel (hydroxypropylcellulose) (HPC)
[6] = dose: 400.0 mg/kg/injection, schedule: Q04DX002 (ip), vehicle: Klucel (hydroxypropylcellulose) (HPC)
[7] = dose: 100.0 mg/kg/injection, schedule: Q01DX009 (ip), vehicle: Klucel (hydroxypropylcellulose) (HPC)
[8] = dose: 200.0 mg/kg/injection, schedule: Q01DX009 (ip), vehicle: Klucel (hydroxypropylcellulose) (HPC)
[9] = dose: 400.0 mg/kg/injection, schedule: Q01DX009 (ip), vehicle: Klucel (hydroxypropylcellulose) (HPC)
[10] = dose: 100.0 mg/kg/injection, schedule: Q01DX009 (ip), vehicle: saline with Tween-80
[11] = dose: 200.0 mg/kg/injection, schedule: Q01DX009 (ip), vehicle: saline with Tween-80
[12] = dose: 400.0 mg/kg/injection, schedule: Q01DX009 (ip), vehicle: saline with Tween-80
[13] = dose: 100.0 mg/kg/injection, schedule: Q04DX003 (ip), vehicle: Klucel (hydroxypropylcellulose) (HPC)
[14] = dose: 100.0 mg/kg/injection, schedule: Q04DX003 (ip), vehicle: saline with Tween-80
[15] = dose: 200.0 mg/kg/injection, schedule: Q04DX003 (ip), vehicle: saline with Tween-80
[16] = dose: 400.0 mg/kg/injection, schedule: Q04DX003 (ip), vehicle: saline with Tween-80
[17] = dose: 200.0 mg/kg/injection, schedule: Q04DX003 (ip), vehicle: Klucel (hydroxypropylcellulose) (HPC)
[18] = dose: 400.0 mg/kg/injection, schedule: Q04DX003 (ip), vehicle: Klucel (hydroxypropylcellulose) (HPC)

Measured: T/C

COC(=O)c1cncn1C(C)c1ccccc1 (stereo not drawn)
inactive: dose: 25.0 mg/kg/injection, schedule: Q04DX003 (ip), vehicle: saline 97 % of control | [1] 104 % of control | dose: 50.0 mg/kg/injection, schedule: Q04DX003 (ip), vehicle: saline 95 % of control | [2] 109 % of control | [3] 97 % of control and 101 % of control

CCCCNC(=O)N(CC)c1cccc(C)c1
inactive: [4] 105 % of control | [5] 118 % of control | [6] 102 % of control

Cc1ccc(Cl)c(NC(=O)c2ccc(C(=O)Nc3cc(C)ccc3Cl)cc2)c1
inactive: [7] 87 % of control | [8] 88 % of control | [9] 91 % of control

CCCCN=CC(C)(C)NCCCC
inactive: [1] 95 % of control | [2] 90 % of control | [3] 106 % of control | dose: 200.0 mg/kg/injection, schedule: Q01DX009 (ip), vehicle: saline 88 % of control | dose: 200.0 mg/kg/injection, schedule: Q04DX003 (ip), vehicle: saline 104 % of control

Cc1ccccc1C(c1ccccc1)C(CC(=O)O)CC(=O)O (stereo not drawn)
inactive: [10] 96 % of control | dose: 100.0 mg/kg/injection, schedule: Q04DX003 (ip), vehicle: other 100 % of control | [11] 95 % of control | dose: 200.0 mg/kg/injection, schedule: Q04DX003 (ip), vehicle: other 103 % of control | [12] 93 % of control | dose: 400.0 mg/kg/injection, schedule: Q04DX003 (ip), vehicle: other 106 % of control

CNC(=O)Oc1ccccc1C(C)C
inactive: [4] 91 % of control | [5] 94 % of control | [6] 95 % of control and 98 % of control

O=C(/C=C\c1ccccc1)C(=O)/C=C/c1ccccc1
inactive: dose: 25.0 mg/kg/injection, schedule: Q01DX009 (ip), vehicle: other 93 % of control | dose: 25.0 mg/kg/injection, schedule: Q04DX003 (ip), vehicle: Klucel (hydroxypropylcellulose) (HPC) 105 % of control | dose: 50.0 mg/kg/injection, schedule: Q01DX009 (ip), vehicle: other 98 % of control | dose: 50.0 mg/kg/injection, schedule: Q04DX003 (ip), vehicle: Klucel (hydroxypropylcellulose) (HPC) 94 % of control | dose: 100.0 mg/kg/injection, schedule: Q01DX001 (ip), vehicle: other 89 % of control | [13] 86 % of control

O=C1c2cccc(Sc3ccccc3)c2C(=O)c2c(Sc3ccccc3)cccc21
inactive: [14] 91 % of control | [15] 88 % of control | [16] 91 % of control

O=C(COc1ccccc1)NCCNC(=S)Nc1ccccc1
inactive: dose: 100.0 mg/kg/injection, schedule: Q01DX001 (ip), vehicle: saline with Tween-80 102 % of control | dose: 200.0 mg/kg/injection, schedule: Q01DX001 (ip), vehicle: saline with Tween-80 94 % of control | dose: 400.0 mg/kg/injection, schedule: Q01DX001 (ip), vehicle: saline with Tween-80 112 % of control

Cc1ccc(-c2csc(NC(=O)CC(=O)N/N=C/c3ccc(N(CCCl)CCCl)cc3C)n2)cc1
inactive: dose: 100.0 mg/kg/injection, schedule: Q01DX001 (ip), vehicle: carboxymethylcellulose (CMC) 112 % of control | dose: 200.0 mg/kg/injection, schedule: Q01DX001 (ip), vehicle: carboxymethylcellulose (CMC) 88 % of control | dose: 400.0 mg/kg/injection, schedule: Q01DX001 (ip), vehicle: carboxymethylcellulose (CMC) 93 % of control

CCCCCCCCCCCCOC(=O)OCCCCCCCCCCCC
inactive: [10] 91 % of control | [14] 97 % of control | [11] 91 % of control | [15] 101 % of control | [16] 101 % of control

CC(=O)Nc1ccc(C=Nc2ccc3c(c2)Cc2ccccc2-3)cc1
inactive: [7] 91 % of control | [13] 94 % of control | [8] 87 % of control | [17] 90 % of control | [9] 86 % of control | [18] 89 % of control

CCN(CC)Cc1ccccc1
inactive: dose: 75.0 mg/kg/injection, schedule: Q01DX001 (ip), vehicle: other 95 % of control

O=C(Oc1ccccc1)c1ccccc1Cl
inactive: [7] 102 % of control | [10] 96 % of control | [13] 96 % of control | [14] 100 % of control | [8] 98 % of control | [11] 101 % of control | [17] 96 % of control | [15] 100 % of control | [9] 95 % of control | [12] 97 % of control | [18] 98 % of control | [16] 110 % of control

CC1CC(C)(C)N=C(C(C)(C)c2ccccc2)O1 (stereo not drawn)
inactive: dose: 100.0 mg/kg/injection, schedule: Q04DX003 (ip), vehicle: saline sonified 102 % of control | dose: 200.0 mg/kg/injection, schedule: Q04DX003 (ip), vehicle: saline sonified 103 % of control | dose: 400.0 mg/kg/injection, schedule: Q04DX003 (ip), vehicle: saline sonified 98 % of control

NC(Cc1cc(I)c(Oc2ccc(O)c(I)c2)c(I)c1)C(=O)O (stereo not drawn)
inactive: dose: 25.0 micrograms/kg/injection, schedule: Q01DX Z (ip), vehicle: saline 86 % of control | dose: 50.0 micrograms/kg/injection, schedule: Q01DX Z (ip), vehicle: saline 92 % of control | dose: 100.0 micrograms/kg/injection, schedule: Q01DX Z (ip), vehicle: saline 101 % of control | dose: 200.0 micrograms/kg/injection, schedule: Q01DX Z (ip), vehicle: saline 89 % of control

NNC(=O)CCC(N)C(=O)O (stereo not drawn)
inactive: dose: 10.77 mg/kg/injection, schedule: Q01DX Z (ip), vehicle: carboxymethylcellulose (CMC) 94 % of control | dose: 21.53 mg/kg/injection, schedule: Q01DX Z (ip), vehicle: carboxymethylcellulose (CMC) 95 % of control | dose: 43.05 mg/kg/injection, schedule: Q01DX Z (ip), vehicle: carboxymethylcellulose (CMC) 104 % of control | dose: 86.1 mg/kg/injection, schedule: Q01DX Z (ip), vehicle: carboxymethylcellulose (CMC) 111 % of control and 124 % of control

CCN(CC)CCN(C)c1cc(C)nc(/N=C(\N)Nc2ccc(Cl)c(Cl)c2)n1
inactive: dose: 18.75 mg/kg/injection, schedule: Q01DX009 (ip), vehicle: saline with Tween-80 92 % of control | dose: 37.5 mg/kg/injection, schedule: Q01DX009 (ip), vehicle: saline with Tween-80 103 % of control | dose: 37.5 mg/kg/injection, schedule: Q04DX003 (ip), vehicle: saline with Tween-80 93 % of control | dose: 75.0 mg/kg/injection, schedule: Q01DX009 (ip), vehicle: saline with Tween-80 92 % of control | dose: 75.0 mg/kg/injection, schedule: Q04DX003 (ip), vehicle: saline with Tween-80 97 % of control

O=C(O)/C(=C\c1ccc(Cl)cc1)c1ccc(C(F)(F)F)cc1[N+](=O)[O-]
inactive: [14] 96 % of control | [15] 94 % of control | [16] 92 % of control

O=C1CCN(CCN2CCC(=O)NC2=S)C(=S)N1
inactive: dose: 100.0 mg/kg/injection, schedule: Q04DX002 (ip), vehicle: gum acacia 94 % of control | dose: 200.0 mg/kg/injection, schedule: Q04DX002 (ip), vehicle: gum acacia 91 % of control | dose: 400.0 mg/kg/injection, schedule: Q04DX002 (ip), vehicle: gum acacia 97 % of control

O=C(O)c1cccc(F)c1C(=O)c1ccc2ccccc2c1 (tested in a mixture with another compound)
inactive: [13] 105 % of control | [17] 86 % of control

Reference: PubChem BioAssay AID248 (DTP/NCI, 2004)
